# Columns and labels:
# normal MEFs = assay: Apoptosis ELISA in normal mouse embryonic fibroblasts; type: cell-based; conditions: 24 hours, 100 nM of peptides
# Procedure: (§1) Mouse embryonic fibroblasts derived from normal and IGFBP3 KO mice were used to test the effects of humanin and its analogues on survival. Apoptosis ELISA was used as an output measure and cells were treated for 24 hours with 100 nM of peptides. […] Thus, the HNGF6A humanin analogue has non-obvious properties that are different from previously described humanin derivatives and has increased potency as a result of its specific molecular alteration leading to reduced IGFBP-3 binding.
# NONcNZO10/LtJ mice = assay: IP glucose tolerance test in NONcNZO10/LtJ mice; type: in vivo, mouse; conditions: IP 25 microgram twice a day for 14 days; IP GTT on D15
# Procedure: NONcNZO10/LtJ mice were injected IP with HNGF6A 25 microgram twice a day for 14 days. Mice were subjected to 6 hour fast followed by IP GTT on D15. Baseline glucose measurement was taken and the mice were injected IP with 0.5 mg/g glucose. Glucose was sampled at 0 and 90, 120 min.
# BP3KO MEFs = assay: Apoptosis ELISA in IGFBP3 KO mouse embryonic fibroblasts; type: cell-based; conditions: 24 hours, 100 nM of peptides
# Procedure: as §1
# Sprague-Dawley rats = assay: Intravenous infusion of humanin or analogs during hyperinsulinemic clamp; type: in vivo, rat; conditions: infused peripherally 0.0375 mg/kg/hr
# IGFBP-3 = IGFBP-3 (Homo sapiens, UniProt P17936); assay: Dot blots probed with radiolabeled IGFBP-3; type: binding; conditions: FIG. 17A
# Procedure: For acute signaling studies, rats were injected ICV with either aCSF, 20 μg of HN or F6A (dissolved in aCSF) over 5 min, and sacrificed 30 min later. Tissue sample were obtained from mediobasal hypothalamus, liver and muscle. Samples were also obtained from these tissues at the end of the clamp and western blot analysis was performed as described previously (Muzumdar et al. 2003) The blots were scanned using the LI-COR Odyssey (LI-COR, Lincoln, Nebr., USA) and quantified using Odyssey 2.0 software based on direct fluorescence measurement. Dot blots were performed by blotting 50 ng of humanin, HN-analogues, and IGF on nitrocellulose, incubating with 125-I-labeled-IGFBP-3, autoradiography and scanning.
# [1] = test system: mice, myocardial ischemia-reperfusion (I/R) injury; assay: Murine myocardial ischemia-reperfusion injury; type: in vivo, mouse
# Procedure: The cardioprotective effects of a single-dose of humanin analog HNG treatment were investigated in a murine model of myocardial ischemia-reperfusion (I/R) injury. Mice were subjected to transient myocardial ischemia for a period of 45 min followed by 24 hour reperfusion. HNG (1, 5, 10, 25, 50 and 200 microgram) or vehicle (saline) was administered intraperitoneally one hour before ischemia.
# [2] = test system: memory impairment caused by AD-related insults; conditions: literature (Tajima et al., 2005); cited from earlier work
# Sequence of IGFBP-3 (P17936 28-291): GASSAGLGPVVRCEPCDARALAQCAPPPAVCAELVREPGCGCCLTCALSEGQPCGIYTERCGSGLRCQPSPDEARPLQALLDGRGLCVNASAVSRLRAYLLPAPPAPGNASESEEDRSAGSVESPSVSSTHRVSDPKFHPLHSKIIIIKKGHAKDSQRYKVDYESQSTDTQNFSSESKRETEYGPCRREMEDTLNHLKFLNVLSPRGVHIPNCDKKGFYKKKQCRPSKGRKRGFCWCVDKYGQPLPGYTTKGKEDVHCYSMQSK
Substance,potency on survival (Apoptosis ELISA) (normal MEFs),glucose levels at 90 and 120 min (NONcNZO10/LtJ mice),glucose tolerance (NONcNZO10/LtJ mice),potency on survival (Apoptosis ELISA) (BP3KO MEFs),glucose infusion rates during clamp (Sprague-Dawley rats),hepatic glucose production (Sprague-Dawley rats; clamp),peripheral glucose uptake (Sprague-Dawley rats; clamp),ability to bind IGFBP-3 (IGFBP-3),"myocardial injury ([1]; single dose IP one hour before 45 min ischemia, 24 hour reperfusion)","doses at which reduced myocardial infarct was observed ([1]; single dose IP one hour before ischemia, 1-200 microgram tested) [µg]",potency relative to native HN in rescue activity against AD-related insults in vivo [2] [times]
MAPRGASCLLLLTGEIDLPVKRRA (Humanin analog HNGF6A) [HN with alanine at 6th amino acid],more potent,significantly lower,significantly better glucose tolerance,equal potency,significantly higher,suppressive effects,significant increase,completely devoid of the ability to bind IGFBP-3,–,–,–
maprgfscll lltgeidlpv krra (MAPRGFSCLLLLTGEIDLPVKRRA; Humanin analog S14G (HNG)) [humanin analogue in which serine at position 14 is replaced by glycine],–,–,–,equal potency,–,–,–,–,decreased myocardial injury,≥ 5,1000

# From patent US9034825B2, “Treatment of myocardial injury with humanin analogs” (Albert Einstein College of Medicine of Yeshiva University, priority 2007, dated 2015)
